Among the data in PubChem BioAssay (NCI) are GI50 and TGI values, retold here.

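Five compound concentrations were applied to cells in 96-well plates for 48 hours; endpoints were derived by simple linear interpolation of the resulting dose-response curve. Abbreviation: GI50, concentration required for 50% inhibition of growth. Definition used: TGI = concentration required for complete inhibition of growth.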

This assay has as its system MDA-MB-468 breast. Put plainly: NCI-60 cell line screen, 48 h.
On to `CC(=Nc1ccccc1)C1=C(O)C(Cc2ccccc2)NC1=O` (configuration not stated), for which the GI50 was 17.3 nM and the TGI was found to be 50.2 nM.

As to `Cc1cc(N(CCNc2ccnc3cc(Cl)ccc23)Cc2ccco2)nc(Cl)n1`, the GI50 was 1500 nM and the TGI came out at 3070 nM.

Regarding `CC[C@@H](C(=O)[C@@H](C)[C@@H](O)[C@H](C)[C@@H]1O[C@@H]([C@@H](CC)C(=O)N(CC)CC)CC[C@@H]1C)C1O[C@]2(C=CC(=O)[C@]3(CC[C@@](C)([C@H]4CC[C@](O)(CC)[C@H](C)O4)O3)O2)[C@H](C)C[C@@H]1C` (some centres not stated), the GI50 was 943 nM and the TGI came out at 3190 nM.

In the case of `CCCCCCCCCCCCCC[n+]1ccc2c(C)c3c(c(C)c2c1)c1cc(O)ccc1n3CC`, the GI50 is 176 nM and the TGI amounted to 654 nM.

For `O=C(NCc1ccc(Cn2c(=O)sn(-c3ccccc3)c2=O)cc1)OCc1ccc2c(Br)cc(Br)c(O)c2n1`, the GI50 was 500 nM and the TGI came out at 2010 nM.

Turning to `NC(=O)c1ccc2nc(-c3ccc(Oc4ccc(Cl)cc4)cc3)[nH]c2c1`, the GI50 is 10500 nM and the TGI was 29300 nM.

Turning to `CCC1CCc2nc3sc(C(=O)Nc4cccc(F)c4)c(N)c3cc2C1` (configuration not stated), the GI50 is 471 nM and the TGI is more than 100000 nM.

Consider `Nc1nc(-c2ccccc2)nc(N)c1N=O`, for which the GI50 was 1750 nM and the TGI worked out at 5700 nM.

On to `CN1CCN(c2ccc3nc(-c4ccc5nc(-c6ccc(OCCC(C)(C)C)cc6)[nH]c5c4)[nH]c3c2)CC1`, for which the GI50 was 1910 nM and the TGI was determined as 4130 nM.

As to `N#CSCC1CC(O)(c2ccccc2)CC(c2ccc(F)cc2)O1` (configuration not stated), the GI50 is 2250 nM and the TGI came to 7550 nM.

Regarding `COc1ccc(OC)c(/C=C(/C)[N+](=O)[O-])c1`, the GI50 was 1270 nM and the TGI was found to be 2680 nM.

For the compound `Cc1ccc2ccc3ccc(C)nc3c2n1.Cc1ccc2ccc3ccc(C)nc3c2n1.Oc1c(Cl)cc(Cl)c2ccc(CN3CCCCC3)nc12.[Ru]`, the GI50 is 248 nM and the TGI was 875 nM.

As to `COc1ccc(Nc2c3ccccc3nc3ccccc23)cc1`, the GI50 was 547 nM and the TGI was 4530 nM.

On to `CC(=O)O[C@]1(C(C)=O)CC[C@H]2[C@@H]3C=C(C)C4=CC(=O)CC[C@]4(C)[C@H]3CC[C@@]21C`, for which the GI50 is 77700 nM and the TGI is more than 100000 nM.

In the case of `Cc1cccc2c(=O)c3c(sc12)c(NCCNCCO)nc1ccccc13`, the GI50 is 1090 nM and the TGI is 2500 nM.

Regarding `NC(=O)c1cc(-c2ccc(F)cc2)cc(-c2ccncc2)c1N`, the GI50 is 8170 nM and the TGI was more than 25000 nM.

As to `C[C@@H](CO)[C@@H]1CCC=C2CC[C@]3(C)[C@H](CC[C@@H]4[C@@]5(C)CCCNC(C)(C)[C@@H]5CC[C@]43C)[C@H]21`, the GI50 was 1800 nM and the TGI stood at 3400 nM.

As to `CN1c2ccccc2C(C)(C)C12C=Cc1cc(O)ccc1O2` (configuration not stated), the GI50 is 3460 nM and the TGI was found to be 16700 nM.

For the compound `CC1(C)[C@@H](O[C@@H]2OC[C@@H](O[C@@H]3O[C@H](CO)[C@@H](O)[C@H](O)[C@H]3O[C@@H]3OC[C@@H](O)[C@H](O)[C@H]3O)[C@H](O)[C@H]2O[C@@H]2O[C@H](CO)[C@@H](O)[C@H](O)[C@H]2O)CC[C@]2(C)[C@H]3CC[C@]45OC[C@@]6(CC[C@](C)(C=O)C[C@H]64)[C@H](O)C[C@@]5(C)[C@]3(C)CC[C@@H]12`, the GI50 was 941 nM and the TGI stood at 1960 nM.

Turning to `Cc1cc(Cl)ccc1NC(=O)c1cc2ccccc2cc1O`, the GI50 is 1780 nM and the TGI amounted to 7420 nM.

As to `COc1cc2c(cc1Nc1nc(Nc3ccsc3C(N)=O)c3cc[nH]c3n1)N(C(=O)CN(C)C)CCC2(C)C`, the GI50 was 471 nM and the TGI stood at 2600 nM.

Take `Oc1[nH]c2ccc(Cl)cc2c1/C=c1/ccc2c(c1)N=C(c1ccc(F)cc1)N=2`: the GI50 is 2020 nM and the TGI was 3570 nM.

With `Cc1c(COc2cc(OCc3cccc(C#N)c3)c(CN3C[C@H](O)C[C@@H]3C(=O)O)cc2Cl)cccc1-c1ccc2c(c1)OCCO2`, the GI50 was 6720 nM and the TGI is 20500 nM.

As to `COc1ccc(Cn2cc3c(c2-c2ccc(OC)cc2)CCc2cnoc2-3)cc1`, the GI50 was 254 nM and the TGI stood at 809 nM.

For `COc1ccc(-c2nc3ccccn3c2/C=C/C(=O)c2cc(OC)c(OC)c(OC)c2)cc1`, the GI50 was 11900 nM and the TGI amounted to 65500 nM.

Take `O=C(Nc1ccc2ncnc(Nc3ccc(Oc4cccc(F)c4)c(Cl)c3)c2c1)c1ccc(CNCCO)cc1`: the GI50 was 561 nM and the TGI was 2020 nM.

As for `CCNC(=O)c1cc2c(-c3cc(C(C)(C)O)ccc3Oc3c(C)cc(F)cc3C)cn(C)c(=O)c2[nH]1`, the GI50 was 1170 nM and the TGI amounted to 7450 nM.

Take `O=[N+]([O-])c1c(Br)sc(Br)c1[N+](=O)[O-]`: the GI50 is 1270 nM and the TGI came to 2910 nM.

In the case of `O=C(/C=C/c1cc([N+](=O)[O-])ccc1Cl)c1ccccc1`, the GI50 was 8460 nM and the TGI came out at 22100 nM.

Regarding `CN(C)c1ccc(Nc2cc(-c3cccc(OC(F)(F)F)c3)nc3ccc(N4CCCC4)cc23)cc1`, the GI50 is 2050 nM and the TGI worked out at 4380 nM.

In the case of `CN(CC(=O)N(Cc1ccc(C2CCCCC2)cc1)c1ccc(C(=O)O)c(O)c1)S(=O)(=O)c1c(F)c(F)c(F)c(F)c1F`, the GI50 is 1760 nM and the TGI worked out at 3760 nM.

With `Fc1ccc(Nc2nc3nonc3nc2Nc2ccc(F)cc2)cc1`, the GI50 is 281 nM and the TGI was found to be 1460 nM.

As to `CCCCCCCCCCCC1CCCC(C)N1` (configuration not stated), the GI50 was 15500 nM and the TGI was 31000 nM.

In turn, `Nc1nc(-c2ccc(F)cc2)c(-c2ccc3ncccc3n2)s1` came in with a TGI of more than 25000 nM.

For `COc1cc(/C=C/C(=O)c2ccc(NC(=O)CN3CCN(c4cc5c(cc4F)c(=O)c(C(=O)O)cn5C4CC4)CC3)cc2)cc(OC)c1OC`, the GI50 was 358 nM.

Regarding `O=C1/C(=C/c2ccc(Cl)cc2)N=C(c2ccccc2)N1CCc1cccs1`, the GI50 is 13700 nM and the TGI was 98200 nM.

As to `COc1cc(Nc2ccnc(NCCCNc3ccnc4cc(Cl)ccc34)n2)cc(OC)c1`, the GI50 is 1490 nM and the TGI was found to be 3180 nM.
